Laboratory results taken from US6881419B2, “Vitamin formulation for enhancing bone strength” (priority 2002, dated 2005).

Tested on: osteoporosis
Experiment: Case Study-1: bone scan, tolerability and energy in a subject with osteoporosis and rheumatoid arthritis
Conditions: person, placed on it at diagnosis of osteoporosis
Source text: The exemplary case studies utilize subjects ranging from fifty-one (51) to eighty-three (83) years of age.

For `NCCCC(O)(P(=O)([O-])O)P(=O)(O)O.[Na+]` [Fosimex], the “Tolerability (stomach problems which developed into an ulcer)” value was “unable to tolerate”.
